Data set [1] is described as follows: solubility of A3334 in oil or surfactants (LC/MS/MS). The class given is physicochemical. Conditions: 37 °C, thermodynamic from solid. Here is the method: To determine emulsion solution, solubility of A3334, for example, is measured in the several oil and surfactants. A3334 is mixed with oil or surfactants (1 ml) and vortexed for 30 min. The equilibrium state was reached by shaking for 72 hours at 37° C. with 50 rpm speed in an incubator, then centrifuged at 16,100×g for 5 min. The supernatant was diluted with methanol and analyzed by LC/MS/MS (see e.g., Table 7).
‘Waters xevo TQ MS-ACQUITY UPLC System’ is used as an analyses equipment. ACQUITY UPLC® BEH(C18, 1.7 μm, 2.1×50 mm) column was used for analyses at room temperature. Mobile phase is used after filtration of deionized distilled water including 0.1% formic acid and acetonitrile including 0.1% formic acid (30:70, v/v) with […] membrane filter. The flow rate is 0.25 ml/min and it is analyzed by injection of 0.5 μl sample. There are LC/MS/MS conditions for Decursin analysis; Cone 38 V, Collison 32 V. Precursor ion and daughter ion are monitored 329 and 229 m/z, respectively.

A further data set relates to Wnt/β-catenin signaling. In words: Wnt/β-catenin signaling (TOPFlash) reporter luciferase assay in HEK293-TOP cells. The class given is cell-based. How it is done:
Luciferase reporter assay. HEK293-TOP cells were seeded in 24-well plates. Cells were treated with A3334 at a concentration of 1, 5, and 10 μM for 24 h. Total cell lysates were extracted with 35 μl of 5× Reporter Lysis Buffer per well according to the manufacturer's instructions (Promega). A total of 35 μl of luciferin was added and luciferase activity was measured using a Fluorstar Optima microplate reader.
Wnt/β-catenin signaling reporter luciferase assay. HEK293-TOP cells were seeded were seeded in 96-well plates at a density of 2.5×10^4 cells per well. Cells were treated with individual chemicals at a concentration of 1, 5, 10 µM for 24 h. Total cell lysates were extracted with 25 µl of 5× Reporter Lysis Buffer per well according to the manufacturer's instruction (Promega, Madison, WI). Luciferin (25 µl) was added and luciferase activity was measured using FLUOSTAR (BMG labtech, Offenburg, Germany).

SMILES strings stand for the structures. ≈ marks a conversion by molar mass, not a printed value.

Broadly, the solubility is the dissolved amount per volume that the medium holds. On to `COc1ccc2c(c1)/C(=C1/Nc3ccccc3/C1=N\O)C(=O)N2` [Compound A3334, 5-Methoxyindirubin-3′-oxime], for which the solubility at 72 h in data set [1] (oil or lipid, Oil: Olive oil) was found to be 830 µg/mL (≈ 2.7 mM); in data set [1] (oil or lipid, Oil: Sunflower oil) it was 1350 µg/mL (≈ 4.39 mM); in data set [1] (organic solvent or mixture, Co-Surfactant: Propylene glycol), 250 µg/mL (≈ 0.814 mM); in data set [1] (organic solvent or mixture, Co-Surfactant: Transcutor P), 1150 µg/mL (≈ 3.74 mM); in data set [1] (KOLLIPHOR EL (listed as oil), aqueous with cosolvent or surfactant or cyclodextrin, Oil: KOLLIPHOR EL), 5400 µg/mL (≈ 17.6 mM); in data set [1] (PEG 400 (co-surfactant), organic solvent or mixture, Co-Surfactant: PEG 400), 3100 µg/mL (≈ 10.1 mM). For the same compound, the solubility at 72 h in data set [1] (Tween 20 (surfactant), aqueous with cosolvent or surfactant or cyclodextrin, Surfactants: Tween 20) stood at 4580 µg/mL (≈ 14.9 mM); in data set [1] (Tween 80 (surfactant), aqueous with cosolvent or surfactant or cyclodextrin, Surfactants: Tween 80), 4920 µg/mL (≈ 16 mM). In the data set with Wnt/β-catenin signaling, the “Wnt/β-catenin (TOPFlash) reporter activity” value is “dose-dependent increment of the TOPFlash reporter activity”.

These data come from US20240425457A1, “COMPOSITIONS AND METHODS FOR SUPPRESSING AND/OR TREATING METABOLIC DISEASES AND/OR A CLINICAL CONDITION THEREOF” (CK Biotech Inc., priority 2018, published 2024).
